Consider 20 molecules from US10029986B2, “Alkynyl pyridine-substituted amide compound and pesticide” (NISSAN CHEMICAL INDUSTRIES, LTD., priority 2014, dated 2018).

Holding throughout (type): in vivo
In experiment [1] the test system is Botrytis cinerea. Description: Test on the preventive effect against cucumber gray mold (spore inoculation). The note with it: 72 h, test solution A 500 ppm, 5 ml per pot, cucumber cut leaves, conidium inoculation, 3 days at 20° C. The method in brief: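 Cotyledon-stage cucumber (Sagami Hanjiro) sprayed with 500 ppm compound from emulsifiable concentrate; detached treated leaves inoculated with B. cinerea conidia in PDA (1:1). After 3 days at 20 °C, humid, lesion proportion gave control value; duplicate test.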

Experiment [2] has as its system Phaeosphaeria nodorum (Synonym: Septoria nodorum). The experiment in a line: Test on the preventive effect against wheat glume blotch. The following applies: Parastagonospora nodorum, 144 h; test solution A 500 ppm, 5 ml per pot, wheat 1.3-leaf stage, 2 days inoculation chamber then 6 days at 20° C. The method in brief: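 Wheat (cv. Haruyutaka) at 1.3-leaf stage sprayed with compound at 500 ppm as diluted emulsifiable concentrate, then inoculated one day later with conidial suspension. Kept 2 days at 20° C and 100% RH, then 6 days in a greenhouse at 20° C. Control value derived from lesion proportion on inoculated leaves; duplicate.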

Experiment [3] concerns Blumeria graminis f. sp. tritici. The experiment in a line: Test on the preventive effect against wheat powdery mildew. The note with it: 168 h, test solution A 500 ppm, 5 ml per pot, wheat 1.3-leaf stage, 7 days after inoculation. As for the experimental part: Compounds of the present invention were dissolved in a solvent for emulsion (a mixture of Sorpol (registered trademark) 3005XL (manufactured by Toho Chemical Industry Co., Ltd.): N-methylpyrrolidone: Solvesso (registered trademark) 200 (manufactured by ExxonMobil Chemical) in a ratio of 1:5:2) to prepare 20 wt % emulsifiable concentrates. Then, distilled water was added to dilute the emulsifiable concentrates to the prescribed concentration (500 ppm), and the obtained solutions were used in the following the Test Examples 1 to 8. Wheat (varieties: Norin 61) was seeded in 90 cm^3 plastic pot, and at the 1.3-leaf stage, 5 ml per pot of test solution A of the compounds of the present invention were applied. One day after treatment, the pot was placed in an air-conditioned greenhouse (20° C.), and conidium of Blumeria graminis f. sp. tritici was inoculated to the wheat. 7 days after, the proportion of the formed lesion in the inoculated leaves were measured to calculate the control value in accordance with the same formula as in the Test Example 1. The test was carried out in duplicate.

In experiment [4] the test system is Southern root-knot nematode (Meloidogyne incognita). Description: Test on the preventive effect against Southern root-knot nematode (garden balsam seedlings). The following applies: 504 h, test solution B 100 ppm, 1 ml per seedling to base of garden balsam seedlings, 3 weeks in greenhouse, read-out: efficacy (root knot damage degree relative to non-treated plot). How it is done:
Compounds of the present invention were dissolved in dimethyl sulfoxide to prepare 1 wt % solutions. Then, distilled water was added to dilute the solutions to the prescribed concentration (100 ppm), and the obtained solutions were used in the following the Test Examples 9 to 12. 1 ml per seedling of test solution B of the compounds of the present invention was treated to the bases of garden balsam seedlings (about 2 weeks after budding) planted in a cell tray of which each cell was filled with 10 g of soil. 1 hour after the application, 1 ml per cell of water containing Southern root-knot nematode (Meloidogyne incognita) 2 L larvae (100 larvae of 2 L/1 ml) was applied to the base. The tray was placed in a greenhouse for 3 weeks, and the degree of root knot on the root was determined in accordance with the following damage index and the damage degree to calculate the efficacy (%) relative to the non-treated plot in accordance with the following formula. • 0: No knot formation was observed. • 1: Knot formations were observed on parts of the root system. • 2: Knot formations were observed on the entire root system. • 3: Large knot formations were observed. • 4: Large knot formations were observed on the entire root system. [Damage degree]=[Σ(damage index×number of each damaged indexed seedling)/(4×number of seedlings investigated)]×100 Efficacy (%)=[1−(damage degree in treated plot/damage degree in non-treated plot)]×100

As to `COC(c1ncc(C#CC2CC2)cc1Cl)C(C)NC(=O)c1sc(C)nc1C(F)F` (stereo not drawn) [9-006a], the pest or weed control at 500 µg/mL in experiment [1], in experiment [2] and in experiment [3] was at least 70% each time. The pest or weed control at 100 µg/mL in experiment [4] was at least 50%.
As to `Cn1cc(C(=O)NCC(C)(C)c2ncc(C#CC3CC3)cc2Cl)c(C(F)F)n1` [8-008], the pest or weed control at 500 µg/mL in experiment [1], in experiment [2] and in experiment [3] was at least 70% in each case.
As to `CSC(CNC(=O)c1cn(C)nc1C(F)F)c1ncc(C#CC2CC2)cc1Cl` (stereo not drawn) [8-020, N-[2-[3-chloro-5-(cyclopropylethynyl)pyridin-2-yl]-2-(methylthio)ethyl]-3-difluoromethyl-1-methyl-1H-pyrazole-4-carboxamide], the pest or weed control at 500 µg/mL in experiment [1] and in experiment [3] was at least 70% throughout.
Consider `O=C(NCC(c1ncc(C#CC2CC2)cc1Cl)C1CC1)c1ccccc1C(F)(F)F` (stereo not drawn) [1-009], for which the pest or weed control at 500 µg/mL in experiment [1], in experiment [2] and in experiment [3] was at least 70% each time. In experiment [4], the pest or weed control at 100 µg/mL is at least 50%.
For the molecule `Cn1cc(C(=O)NCC(F)(F)c2ncc(C#CC3CC3)cc2Cl)c(C(F)F)n1` [8-003], the pest or weed control at 500 µg/mL in experiment [1], in experiment [2] and in experiment [3] was at least 70% throughout.
Turning to `CC(CNC(=O)c1cccnc1Cl)c1ncc(C#CC2CC2)cc1Cl` (stereo not drawn) [3-005], the pest or weed control at 500 µg/mL in experiment [1], in experiment [2] and in experiment [3] was at least 70% each time. Moreover, in experiment [4], the pest or weed control at 100 µg/mL was at least 50%.
On to `CC(C)(CNC(=O)c1cccnc1C(F)F)c1ncc(C#CC2CC2)cc1Cl` [3-007, N-[2-[3-chloro-5-(cyclopropylethynyl)pyridin-2-yl]-2-methylpropyl]-2-(difluoromethyl)nicotinamide], for which the pest or weed control at 500 µg/mL in experiment [1], in experiment [2] and in experiment [3] was at least 70% each time.
On to `O=C(NCCc1ncc(C#CC2CC2)cc1Cl)c1ccccc1C(F)(F)F` [1-002], for which the pest or weed control at 500 µg/mL in experiment [1], in experiment [2] and in experiment [3] was at least 70% in each case.
Regarding `COC(c1ncc(C#CC2CC2)cc1Cl)C(C)NC(=O)c1cn(C)nc1C(F)F` (stereo not drawn) [8-028, N-[2-[3-chloro-5-(cyclopropylethynyl)pyridin-2-yl]-2-methoxy-1-methylethyl]-3-difluoromethyl-1-methyl-1H-pyrazole-4-carboxamide], the pest or weed control at 500 µg/mL in experiment [1], in experiment [2] and in experiment [3] was at least 70% each time. Also, the pest or weed control at 100 µg/mL in experiment [4] was at least 50%.
Take `Cc1nc(C(F)F)c(C(=O)NCC(C)c2ncc(C#CC3CC3)cc2Cl)s1` (stereo not drawn) [9-002]: the pest or weed control at 500 µg/mL in experiment [1], in experiment [2] and in experiment [3] was at least 70% in each case.
For the molecule `Cn1cc(C(=O)NCC2(c3ncc(C#CC4CC4)cc3Cl)CC2)c(C(F)F)n1` [8-018, N-[[1-[3-chloro-5-(cyclopropylethynyl)pyridin-2-yl]cyclopropyl]methyl]-3-difluoromethyl-1-methyl-1H-pyrazole-4-carboxamide], the pest or weed control at 500 µg/mL in experiment [1], in experiment [2] and in experiment [3] was at least 70% each time.
On to `CSC(CNC(=O)c1ccccc1C(F)(F)F)c1ncc(C#CC2CC2)cc1Cl` (stereo not drawn) [1-021], for which the pest or weed control at 500 µg/mL in experiment [1], in experiment [2] and in experiment [3] was at least 70% each time.
As to `CC(CNC(=O)c1cccnc1C(F)F)c1ncc(C#CC2CC2)cc1Cl` (stereo not drawn) [3-006], the pest or weed control at 500 µg/mL in experiment [1], in experiment [2] and in experiment [3] was at least 70% each time. The pest or weed control at 100 µg/mL in experiment [4] was at least 50%.
Take `CC(C)(CNC(=O)c1ccccc1C(F)(F)F)c1ncc(C#CC2CC2)cc1Cl` [1-008]: the pest or weed control at 500 µg/mL in experiment [1], in experiment [2] and in experiment [3] was at least 70% each time.
As for `O=C(NCC(F)(F)c1ncc(C#CC2CC2)cc1Cl)c1ccccc1C(F)(F)F` [1-005], the pest or weed control at 500 µg/mL in experiment [1], in experiment [2] and in experiment [3] was at least 70% in each case. Moreover, the pest or weed control at 100 µg/mL in experiment [4] was at least 50%.
Take `CC#Cc1cnc(CCNC(=O)c2ccccc2C(F)(F)F)c(Cl)c1` [1-001, N-[2-[3-chloro-5-(1-propynyl)pyridin-2-yl]ethyl]-2-(trifluoromethyl)benzamide]: the pest or weed control at 500 µg/mL in experiment [1], in experiment [2] and in experiment [3] was at least 70% throughout.
Consider `CC(CNC(=O)c1ccccc1C(F)(F)F)c1ncc(C#CC2CC2)cc1Cl` (stereo not drawn) [1-007, N-[2-[3-chloro-5-(cyclopropylethynyl)pyridin-2-yl]propyl]-2-(trifluoromethyl)benzamide], for which the pest or weed control at 500 µg/mL in experiment [1], in experiment [2] and in experiment [3] was at least 70% in each case. Also, the pest or weed control at 100 µg/mL in experiment [4] is at least 50%.
As for `C=C(CNC(=O)c1ccccc1C(F)(F)F)c1ncc(C#CC)cc1Cl` [1-012, N-[2-[3-chloro-5-(1-propynyl)pyridin-2-yl]-2-propenyl]-2-(trifluoromethyl)benzamide], the pest or weed control at 500 µg/mL in experiment [1], in experiment [2] and in experiment [3] was at least 70% throughout. Besides, the pest or weed control at 100 µg/mL in experiment [4] is at least 50%.
As to `CC(C)(C)C#Cc1cnc(CCNC(=O)c2ccccc2C(F)(F)F)c(Cl)c1` [1-003, N-[2-[3-chloro-5-(3,3-dimethyl-1-butynyl)pyridin-2-yl]ethyl]-2-(trifluoromethyl)benzamide], the pest or weed control at 500 µg/mL in experiment [1], in experiment [2] and in experiment [3] was at least 70% each time. Also, the pest or weed control at 100 µg/mL in experiment [4] is at least 50%.
In the case of `COC(CNC(=O)c1cn(C)nc1C(F)F)c1ncc(C#CC2CC2)cc1Cl` (stereo not drawn) [8-019], the pest or weed control at 500 µg/mL in experiment [1], in experiment [2] and in experiment [3] was at least 70% throughout. Further, the pest or weed control at 100 µg/mL in experiment [4] is at least 50%.
